Data on 1 compound can be found in ChEMBL document CHEMBL1148604 (J Med Chem, 2006).

The test system of assay [1] is Mycobacterium tuberculosis. In words: Inhibitory activity against Mycobacterium tuberculosis H37Rv. Type of assay: functional.
The target in the next assay is Fatty acid synthase (Homo sapiens, UniProt P49327). The assay can be described thus: Inhibitory activity against human FAS1.
The test system of a further assay is Escherichia coli. The assay can be described thus: Inhibitory activity against Escherichia coli ANSI. It is filed as functional.
Assay [2] concerns the target T1, 3-oxoacyl-[acyl-carrier-protein] synthase 1 (Escherichia coli K-12, UniProt P0A953).
T1 sequence (P0A953 whole entry): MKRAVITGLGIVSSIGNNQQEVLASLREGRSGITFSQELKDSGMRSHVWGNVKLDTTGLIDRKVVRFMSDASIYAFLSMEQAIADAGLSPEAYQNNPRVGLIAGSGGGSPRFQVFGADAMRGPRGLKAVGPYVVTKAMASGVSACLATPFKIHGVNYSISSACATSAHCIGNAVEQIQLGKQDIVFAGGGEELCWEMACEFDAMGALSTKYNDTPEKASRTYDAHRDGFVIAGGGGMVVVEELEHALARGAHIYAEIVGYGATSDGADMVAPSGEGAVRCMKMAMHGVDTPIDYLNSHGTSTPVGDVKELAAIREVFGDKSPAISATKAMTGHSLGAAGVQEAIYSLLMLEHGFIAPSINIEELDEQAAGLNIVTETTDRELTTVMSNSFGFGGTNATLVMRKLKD
In words: Inhibitory activity against FabB from Escherichia coli ANSI.

Values after ≈ are worked out from the molar mass of the structure shown.

Fatty acid synthase, sequence (P49327 whole entry): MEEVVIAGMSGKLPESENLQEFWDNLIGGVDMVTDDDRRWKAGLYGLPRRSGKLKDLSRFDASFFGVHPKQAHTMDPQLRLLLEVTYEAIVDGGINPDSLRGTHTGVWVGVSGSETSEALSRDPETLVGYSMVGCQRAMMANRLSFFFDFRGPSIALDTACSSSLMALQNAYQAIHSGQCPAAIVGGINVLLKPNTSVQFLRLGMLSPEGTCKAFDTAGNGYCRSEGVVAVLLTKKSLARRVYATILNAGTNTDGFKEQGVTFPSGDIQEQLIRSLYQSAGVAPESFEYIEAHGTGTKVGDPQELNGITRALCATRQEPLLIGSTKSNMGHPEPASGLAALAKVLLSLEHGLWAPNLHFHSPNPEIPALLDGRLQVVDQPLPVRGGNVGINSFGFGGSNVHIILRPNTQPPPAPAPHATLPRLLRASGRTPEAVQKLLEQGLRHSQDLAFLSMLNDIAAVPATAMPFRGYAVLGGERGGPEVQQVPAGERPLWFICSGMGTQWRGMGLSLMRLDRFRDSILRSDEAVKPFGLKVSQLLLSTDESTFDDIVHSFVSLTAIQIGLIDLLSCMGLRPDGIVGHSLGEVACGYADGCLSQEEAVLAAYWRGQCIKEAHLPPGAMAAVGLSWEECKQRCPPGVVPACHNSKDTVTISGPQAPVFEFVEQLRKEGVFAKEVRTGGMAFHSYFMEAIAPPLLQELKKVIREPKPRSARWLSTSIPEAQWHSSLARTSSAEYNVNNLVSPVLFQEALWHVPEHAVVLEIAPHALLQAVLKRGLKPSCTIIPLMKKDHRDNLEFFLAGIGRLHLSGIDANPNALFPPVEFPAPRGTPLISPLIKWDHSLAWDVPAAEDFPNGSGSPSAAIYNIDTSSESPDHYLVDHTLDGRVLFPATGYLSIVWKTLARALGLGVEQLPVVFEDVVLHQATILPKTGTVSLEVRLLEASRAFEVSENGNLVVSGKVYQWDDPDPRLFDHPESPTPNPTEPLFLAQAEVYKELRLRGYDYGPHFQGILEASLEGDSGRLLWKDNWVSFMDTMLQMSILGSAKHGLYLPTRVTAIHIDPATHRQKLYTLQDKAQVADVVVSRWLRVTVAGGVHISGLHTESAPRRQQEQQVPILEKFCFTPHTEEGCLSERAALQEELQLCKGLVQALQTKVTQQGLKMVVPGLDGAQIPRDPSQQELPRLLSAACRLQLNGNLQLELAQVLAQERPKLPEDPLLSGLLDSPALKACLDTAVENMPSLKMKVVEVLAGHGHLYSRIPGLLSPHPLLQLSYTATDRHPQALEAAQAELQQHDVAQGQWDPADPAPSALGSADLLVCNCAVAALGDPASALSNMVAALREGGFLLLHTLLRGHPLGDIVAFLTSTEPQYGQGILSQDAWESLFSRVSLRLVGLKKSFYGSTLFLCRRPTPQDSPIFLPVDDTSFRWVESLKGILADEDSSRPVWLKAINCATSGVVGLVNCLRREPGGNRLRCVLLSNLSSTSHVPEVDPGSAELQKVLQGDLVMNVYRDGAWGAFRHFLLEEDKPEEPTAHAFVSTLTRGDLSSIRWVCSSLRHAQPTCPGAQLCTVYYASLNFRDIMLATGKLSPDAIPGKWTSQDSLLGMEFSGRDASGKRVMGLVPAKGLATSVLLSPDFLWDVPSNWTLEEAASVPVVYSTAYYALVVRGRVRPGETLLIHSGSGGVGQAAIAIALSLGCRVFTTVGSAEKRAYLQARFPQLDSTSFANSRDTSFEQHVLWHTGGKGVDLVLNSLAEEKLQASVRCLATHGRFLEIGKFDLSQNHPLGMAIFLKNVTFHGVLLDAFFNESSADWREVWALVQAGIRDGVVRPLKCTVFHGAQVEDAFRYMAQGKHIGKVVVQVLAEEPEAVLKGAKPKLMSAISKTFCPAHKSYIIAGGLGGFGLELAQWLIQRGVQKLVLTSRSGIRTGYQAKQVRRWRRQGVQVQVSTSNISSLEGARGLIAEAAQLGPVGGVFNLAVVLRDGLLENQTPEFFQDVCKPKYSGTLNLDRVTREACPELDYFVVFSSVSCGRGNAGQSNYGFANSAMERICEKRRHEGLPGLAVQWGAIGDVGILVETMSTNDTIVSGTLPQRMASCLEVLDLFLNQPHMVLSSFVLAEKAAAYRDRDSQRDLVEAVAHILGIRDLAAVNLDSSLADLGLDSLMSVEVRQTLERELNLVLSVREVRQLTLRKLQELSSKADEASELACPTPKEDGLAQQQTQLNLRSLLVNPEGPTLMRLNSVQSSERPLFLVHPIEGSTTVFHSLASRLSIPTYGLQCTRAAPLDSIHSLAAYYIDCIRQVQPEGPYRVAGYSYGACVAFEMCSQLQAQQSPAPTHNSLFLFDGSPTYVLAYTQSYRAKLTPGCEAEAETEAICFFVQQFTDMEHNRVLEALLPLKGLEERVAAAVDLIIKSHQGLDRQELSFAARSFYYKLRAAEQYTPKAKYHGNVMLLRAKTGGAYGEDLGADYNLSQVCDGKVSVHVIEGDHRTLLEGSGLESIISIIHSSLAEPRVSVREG

On to `C=C/C(C)=C/C1(C)SC(O)=C(C)C1=O` (racemic) [RAC-THIOLACTOMYCIN], for which the MIC in assay [1] stood at 125 µM (≈ 26.3 µg/mL); in the assay with Escherichia coli it was 12 µM (≈ 2.52 µg/mL). The half-maximal inhibitory concentration (IC50) at Fatty acid synthase was 143 µM; in assay [2] it was 20 µM.
